Where two headings read alike, the source gives them in different places. Numbered stars: 1 amine (or outer) side, 2 acyl side, 3 side chain; on linkers, the order of the positions; unused ones are H or OH. Square brackets hold non-standard residues; d marks the D form. Peptide text beside a SMILES is read from it. * marks the point of attachment. Trp(βS-Me,7-OMe) = COc1cccc2c([C@H](C)[C@H](N)C(=O)O)c[nH]c12; Trp(7-CN) = N#Cc1cccc2c(C[C@H](N)C(=O)O)c[nH]c12; Trp(7-Cl) = N[C@@H](Cc1c[nH]c2c(Cl)cccc12)C(=O)O; Phe(3-CONH2) = NC(=O)c1cccc(C[C@H](N)C(=O)O)c1; Phe(4-CONH2) = NC(=O)c1ccc(C[C@H](N)C(=O)O)cc1; Phe(4-COOH) = N[C@@H](Cc1ccc(C(=O)O)cc1)C(=O)O; 4Pal(3S-Me) = C[C@@H](c1ccncc1)[C@H](N)C(=O)O; X9 = CN(C)[C@@H]1C[C@H](C(=O)[*:2])N([*:1])C1; Pip(5R-OH) = O=C(O)[C@@H]1CC[C@@H](O)CN1; X1 = O=C([C@@H]1CC[C@H](N[*:1])C1)[*:2]; Pip(4-aza) = O=C(O)[C@@H]1CNCCN1; 4Pal = N[C@@H](Cc1ccncc1)C(=O)O; Abu(4-CN) = N#CCC[C@H](N)C(=O)O; NMeE = CN[C@@H](CCC(=O)O)C(=O)O; dHyp = O=C(O)[C@H]1C[C@H](O)CN1; Ahp(2) = CCCCC[C@H](N)C(=O)O; αMeS = C[C@](N)(CO)C(=O)O; Carboxymethyl = O=C(O)C*; Nle = CCCC[C@H](N)C(=O)O; Sar = CNCC(=O)O
How the values were obtained:
human TNFR2 ECD protein = biological target: T1, human TNFR2 ECD protein (Homo sapiens, UniProt P20333); experiment: SPR off-target binding (selectivity) to human TNFR2 ECD
T1 construct: HRV 3C protease cleavage site (C); 6His (C, cleaved yes); made in house; host or cells: Sf21 insect cells (baculovirus), secreted
T1 sequence (P20333 23-257): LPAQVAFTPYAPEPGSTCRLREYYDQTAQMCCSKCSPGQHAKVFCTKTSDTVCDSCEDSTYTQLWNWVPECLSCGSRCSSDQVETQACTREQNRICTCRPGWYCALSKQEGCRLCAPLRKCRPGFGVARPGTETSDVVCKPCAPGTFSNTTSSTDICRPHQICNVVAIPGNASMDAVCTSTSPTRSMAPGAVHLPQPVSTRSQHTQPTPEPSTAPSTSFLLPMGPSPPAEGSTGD
Outline: (§1)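 Read-out: kon, koff and derived affinity from SPR response units. Human TNFR1 and TNFR2 ECD, Avi-tag biotinylated with BirA, captured on a streptavidin surface; peptides injected under laminar flow in HEPES-saline with EDTA, P20 and 2% DMSO.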

[1] = biological target: T2, human soluble TNFR1 (sTNFR1) (Homo sapiens, UniProt P19438); experiment: Human sTNFR1-peptide displacement assay (LanthaScreen Eu TR-FRET binding assay)
T2 construct: made in house; host or cells: Sf21 (baculovirus)
T2 sequence (P19438 with tags, fused parts or gaps): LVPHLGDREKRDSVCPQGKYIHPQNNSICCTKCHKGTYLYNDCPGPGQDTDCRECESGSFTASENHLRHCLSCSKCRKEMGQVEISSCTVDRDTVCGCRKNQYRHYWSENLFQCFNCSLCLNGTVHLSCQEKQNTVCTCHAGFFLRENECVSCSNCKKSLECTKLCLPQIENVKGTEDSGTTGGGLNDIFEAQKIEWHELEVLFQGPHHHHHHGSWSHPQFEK
Outline: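 Readout is the 665/615 nm TR-FRET ratio (Eu anti-His donor, streptavidin-Alexa647 acceptor), normalized to DMSO and saturating displacer, fit by Morrison-based five-parameter logistic for Kd^app. His-tagged sTNFR1 (1-211) prebound to 100 nM biotinylated peptide SEQ ID NO.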

[2] = biological target: T3, human TNFR1 extracellular domain (ECD) protein (Homo sapiens, UniProt P19438); experiment: SPR binding affinity to captured human TNFR1 ECD
T3 construct: HRV 3C protease cleavage site (C); 6His (C, cleaved yes); made in house; host or cells: Sf21 insect cells (baculovirus), secreted
T3 sequence (P19438 30-211): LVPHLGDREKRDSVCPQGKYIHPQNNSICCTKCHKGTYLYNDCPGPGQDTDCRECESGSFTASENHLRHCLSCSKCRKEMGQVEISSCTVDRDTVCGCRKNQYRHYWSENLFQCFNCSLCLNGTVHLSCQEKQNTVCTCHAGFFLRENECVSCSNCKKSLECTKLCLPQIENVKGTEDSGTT
Outline: as §1

`CCCCC[C@@H]1NC(=O)[C@@H]2CC[C@@H](C2)NC(=O)[C@H]([C@@H](C)c2c[nH]c3c(OC)cccc23)NC(=O)CN(C)C(=O)[C@H](Cc2ccc(C(N)=O)cc2)NC(=O)[C@H](Cc2ccc(C(N)=O)cc2)NC(=O)[C@](C)(CO)NC(=O)[C@H](Cc2c[nH]c3c(C#N)cccc23)NC(=O)[C@H](Cc2ccc(C(=O)O)cc2)NC(=O)[C@H](CC(N)=O)NC(=O)[C@H]2C[C@H](O)CN2C(=O)[C@H](Cc2c[nH]c3ccccc23)NC(=O)[C@H](CCC#N)NC(=O)[C@H]([C@@H](C)c2ccncc2)NC1=O` [SEQ ID NO. 79] (cyclo([Ahp(2)][4Pal(3S-Me)][Abu(4-CN)]W[dHyp]N[Phe(4-COOH)][Trp(7-CN)][αMeS][Phe(4-CONH2)][Phe(4-CONH2)][Sar][Trp(βS-Me,7-OMe)][X1])) gave a Kd (human TNFR2 ECD protein) of over 1000 nM, a Kd [1] of 0.15 nM and a Kd [2] of 0.05 nM.

`CCCC[C@@H]1NC(=O)[C@@H]2CC[C@@H](C2)NC(=O)[C@H]([C@@H](C)c2c[nH]c3c(OC)cccc23)NC(=O)CN(C)C(=O)[C@H](Cc2ccc(O)cc2)NC(=O)[C@H](Cc2ccc(OCC(=O)O)cc2)NC(=O)[C@](C)(CO)NC(=O)[C@H](Cc2c[nH]c3c(Cl)cccc23)NC(=O)[C@H](Cc2ccncc2)NC(=O)[C@H](CC(N)=O)NC(=O)[C@H](CCC(=O)O)N(C)C(=O)[C@H](Cc2c[nH]c3ccccc23)NC(=O)[C@@H]2CNCCN2C(=O)[C@H](Cc2ccncc2)NC1=O` [SEQ ID NO. 80] (cyclo([4Pal][Trp(7-Cl)][αMeS]Y(Carboxymethyl)Y[Sar][Trp(βS-Me,7-OMe)][X1][Nle][4Pal][Pip(4-aza)]W[NMeE]N)) showed a Kd (human TNFR2 ECD protein) of over 1000 nM, a Kd [1] of 0.3 nM and a Kd [2] of 0.33 nM.

In the case of `CCCC[C@@H]1NC(=O)[C@@H]2CC[C@@H](C2)NC(=O)[C@H]([C@@H](C)c2c[nH]c3c(OC)cccc23)NC(=O)CN(C)C(=O)[C@H](Cc2ccc(C(=O)O)cc2)NC(=O)[C@H](Cc2ccc(C(N)=O)cc2)NC(=O)[C@](C)(CO)NC(=O)[C@H](Cc2c[nH]c3c(Cl)cccc23)NC(=O)[C@H](Cc2ccncc2)NC(=O)[C@H](CC(N)=O)NC(=O)[C@H]2C[C@H](O)CN2C(=O)[C@H](Cc2c[nH]c3ccccc23)NC(=O)[C@@H]2CNCCN2C(=O)[C@H](Cc2ccncc2)NC1=O` [SEQ ID NO. 83] (cyclo([4Pal][Trp(7-Cl)][αMeS][Phe(4-CONH2)][Phe(4-COOH)][Sar][Trp(βS-Me,7-OMe)][X1][Nle][4Pal][Pip(4-aza)]W[dHyp]N)), the Kd (human TNFR2 ECD protein; biotinylated human TNFR2 ECD on streptavidin chip, read-out: SPR hTNFR2 KD) is reported as over 1000 nM, the Kd ([1]; displacement of biotinylated peptide SEQ ID NO. 1 from sTNFR1, 20 point titration, 5-parameter fit based on Morrison equation (tight binding), read-out: TR-FRET Kd^app) is reported as 0.16 nM and the Kd ([2]; biotinylated human TNFR1 ECD on streptavidin chip, from kon and koff, read-out: SPR hTNFR1 KD) is reported as 0.09 nM.

For `CCCCC[C@@H]1NC(=O)[C@@H]2CC[C@@H](C2)NC(=O)[C@H]([C@@H](C)c2c[nH]c3c(OC)cccc23)NC(=O)CN(C)C(=O)[C@H](Cc2cccc(C(N)=O)c2)NC(=O)[C@H](Cc2ccc(C(N)=O)cc2)NC(=O)[C@](C)(CO)NC(=O)[C@H](Cc2c[nH]c3c(C#N)cccc23)NC(=O)[C@H](Cc2ccc(C(=O)O)cc2)NC(=O)[C@H](CC(N)=O)NC(=O)[C@H]2C[C@@H](N(C)C)CN2C(=O)[C@H](Cc2c[nH]c3ccccc23)NC(=O)[C@@H]2CC[C@@H](O)CN2C(=O)[C@H](Cc2ccncc2)NC1=O` [SEQ ID NO. 84] (cyclo([4Pal][Pip(5R-OH)]W[X9]N[Phe(4-COOH)][Trp(7-CN)][αMeS][Phe(4-CONH2)][Phe(3-CONH2)][Sar][Trp(βS-Me,7-OMe)][X1][Ahp(2)])), the Kd (human TNFR2 ECD protein) was over 1000 nM, the Kd [1] was 0.06 nM and the Kd [2] was 0.02 nM.

— patent publication US20240287138A1, “CYCLIC PEPTIDES FOR INHIBITING TNF RECEPTOR 1 ACTIVITY” (Merck Sharp & Dohme LLC, priority 2023, published 2024)
